Common to all, as to assay: MIC, CLSI broth microdilution, Test Example 1
Assay type in all cases: cell-based
(In general: Dilution methods test growth across graded concentrations, often in twofold steps.)

The subject of assay [1] is A. baumannii SR27323. The settings on record: Acinetobacter baumannii, SR27323; OXA-23, OXA-58 carbapenemase producing strain; cation-adjusted Mueller Hinton broth containing human apo-transferrin; 5×10^5 cfu/mL; read-out: Minimum Inhibitory Concentration (MIC) A. baumannii SR27323. Summed up:
(§1)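 CLSI broth microdilution; CAMHB + human apo-transferrin; inoculum 5×10^5 cfu/mL; MIC in μg/mL.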

Assay [2] deals with P. aeruginosa SR24837. The settings on record: Pseudomonas aeruginosa, SR24837; PER-1 ESBL producing strain; cation-adjusted Mueller Hinton broth containing human apo-transferrin; 5×10^5 cfu/mL; read-out: Minimum Inhibitory Concentration (MIC) P. aeruginosa SR24837. The procedure, abridged:
as §1

The test system of assay [3] is K. pneumoniae ATCCBAA-1705. The settings on record: Klebsiella pneumoniae, ATCCBAA1705; KPC-2 carbapenemase producing strain; cation-adjusted Mueller Hinton broth containing human apo-transferrin; 5×10^5 cfu/mL; read-out: Minimum Inhibitory Concentration (MIC) K. pneumoniae ATCCBAA-1705. The procedure, abridged:
as §1

The test system of assay [4] is E. coli ATCCBAA-200. The settings on record: Escherichia coli, ATCCBAA200; SHV-4 ESBL producing strain; cation-adjusted Mueller Hinton broth containing human apo-transferrin; 5×10^5 cfu/mL; read-out: Minimum Inhibitory Concentration (MIC) E. coli ATCC BAA-200. Summed up:
as §1

The subject of assay [5] is E. coli ATCCBAA-199. The settings on record: Escherichia coli, ATCCBAA199; SHV-3 ESBL producing strain; cation-adjusted Mueller Hinton broth containing human apo-transferrin; 5×10^5 cfu/mL; read-out: Minimum Inhibitory Concentration (MIC) E. coli ATCC BAA-199. Summed up: as §1
Assay [6] deals with P. aeruginosa SR27060. The settings on record: Pseudomonas aeruginosa, SR27060; IMP-1 MBL producing strain (carbapenem resistance strain); cation-adjusted Mueller Hinton broth containing human apo-transferrin; 5×10^5 cfu/mL; read-out: Minimum Inhibitory Concentration (MIC) P. aeruginosa SR27060. Summed up:
as §1

In assay [7] the test system is P. aeruginosa SR24. The settings on record: Pseudomonas aeruginosa, SR24; Ceftazidime resistance strain; cation-adjusted Mueller Hinton broth containing human apo-transferrin; 5×10^5 cfu/mL; read-out: Minimum Inhibitory Concentration (MIC) P. aeruginosa SR24.

Structures are written as SMILES. ≈ marks a conversion by molar mass, not a printed value. A value given as a limit tells only on which side of the number the result lay.

Turning to `CC(C)(O/N=C(\C(=O)N[C@@H]1C(=O)N2C(c3nnn[nH]3)=C(C[N+]3(CCNC(=O)c4cc(O)c(O)c(F)c4)CCCC3)CS[C@H]12)c1csc(N)n1)C(=O)[O-]` [Compound I-56], the MIC in assay [1] is 0.5 µg/mL (≈ 0.658 µM); in assay [2] it was 0.25 µg/mL (≈ 0.329 µM); in assay [3], not above 0.031 µg/mL; in assay [4], 0.25 µg/mL (≈ 0.329 µM); in assay [5], 0.125 µg/mL (≈ 0.165 µM); in assay [6], 0.5 µg/mL (≈ 0.658 µM). The MIC in assay [7] was not above 0.031 µg/mL.

For `CC(C)(O/N=C(\C(=O)N[C@@H]1C(=O)N2C(c3nnn[n-]3)=C(C[N+]34CCC(CNC(=O)c5cc(=O)c(O)c[nH]5)(CC3)CC4)CS[C@H]12)c1csc(N)n1)C(=O)[O-].[Na+]` [Compound I-9], the MIC worked out at 1 µg/mL in assay [1]; 2 µg/mL in assay [2]; 0.063 µg/mL in assay [3]; 0.5 µg/mL in assay [4]; 0.25 µg/mL in assay [5]; 4 µg/mL in assay [6]. Also, the MIC in assay [7] came out at 0.25 µg/mL.

Take `CC(C)(O/N=C(\C(=O)N[C@@H]1C(=O)N2C(c3nnn[n-]3)=C(Cn3cc(NC(=O)c4ccc(O)c(O)c4Cl)[n+]4c3CCCC4)CS[C@H]12)c1csc(N)n1)C(=O)[O-].[Na+]` [Compound I-16]: the MIC in assay [1] is 1 µg/mL; in assay [2], 1 µg/mL; in assay [3], not above 0.031 µg/mL; in assay [4], 0.25 µg/mL; in assay [5] it was 0.25 µg/mL; in assay [6], 0.25 µg/mL. Also, in assay [7], the MIC was 0.125 µg/mL.

In the case of `CC(C)(O/N=C(\C(=O)N[C@@H]1C(=O)N2C(c3nnn[n-]3)=C(C[N+]3(CCNC(=O)c4ccc(O)c(O)c4Cl)CCCC3)C[S+]([O-])[C@H]12)c1csc(N)n1)C(=O)[O-].[Na+]` (stereo partly drawn) [Compound I-7], the MIC in assay [1] came to 16 µg/mL; in assay [2] it was 1 µg/mL; in assay [3], 0.063 µg/mL; in assay [4], 0.5 µg/mL; in assay [5], 0.25 µg/mL; in assay [6] it was 4 µg/mL. Further, the MIC in assay [7] worked out at 2 µg/mL.

Take `CC(C)(O/N=C(\C(=O)N[C@@H]1C(=O)N2C(c3nn[n-]n3)=C(C[N+]3(Cc4nc(-c5ccc(O)c(O)c5Cl)no4)CCCC3)CS[C@H]12)c1csc(N)n1)C(=O)[O-].[Na+]` [Compound I-46]: the MIC in assay [1] is 0.5 µg/mL; in assay [2], 1 µg/mL; in assay [3] it was not above 0.031 µg/mL; in assay [4], 0.5 µg/mL; in assay [5] it was 0.125 µg/mL; in assay [6], 0.5 µg/mL. The MIC in assay [7] was 0.25 µg/mL.

For the compound `CC(C)(O/N=C(\C(=O)N[C@@H]1C(=O)N2C(c3nnn[n-]3)=C(C[N+]3(CCNC(=O)c4cc(O)c(O)cc4F)CCCC3)CS[C@H]12)c1csc(N)n1)C(=O)[O-].[Na+]` [Compound I-55], the MIC in assay [1] is 2 µg/mL; in assay [2], 0.5 µg/mL; in assay [3], not above 0.031 µg/mL; in assay [4], 1 µg/mL; in assay [5], 0.25 µg/mL; in assay [6] it was 1 µg/mL. In addition, the MIC in assay [7] amounted to 0.25 µg/mL.

With `CC(C)(O/N=C(\C(=O)N[C@@H]1C(=O)N2C(c3nnn[n-]3)=C(C[N+]34CCC[C@H]3CN(C(=O)c3cc(O)c(O)c(Cl)c3)CC4)CS[C@H]12)c1csc(N)n1)C(=O)[O-].[Na+]` (stereo partly drawn) [Compound I-13], the MIC in assay [1] is 2 µg/mL; in assay [2], 2 µg/mL; in assay [3] it was not above 0.031 µg/mL; in assay [4], 1 µg/mL; in assay [5] it was 0.5 µg/mL; in assay [6], 0.5 µg/mL. For the same compound, the MIC in assay [7] worked out at 0.125 µg/mL.

Regarding `CC(C)(O/N=C(\C(=O)N[C@@H]1C(=O)N2C(c3nnn[n-]3)=C(C[N+]3(CCNC(=O)c4cc(O)c(O)cc4Cl)CCCC3)CS[C@H]12)c1csc(N)n1)C(=O)[O-].[Na+]` [Compound I-50], the MIC is 1 µg/mL in assay [1]; 2 µg/mL in assay [2]; not above 0.031 µg/mL in assay [3]; 0.5 µg/mL in assay [4]; 0.25 µg/mL in assay [5]; 1 µg/mL in assay [6]. Also, the MIC in assay [7] was 0.25 µg/mL.

With `CC(C)(O/N=C(\C(=O)N[C@@H]1C(=O)N2C(c3nnn[n-]3)=C(C[N+](C)(C)CCNC(=O)c3ccc(O)c(O)c3Cl)CS[C@H]12)c1csc(N)n1)C(=O)[O-].[Na+]` [Compound I-11], the MIC is 0.25 µg/mL in assay [1]; 0.063 µg/mL in assay [2]; not above 0.031 µg/mL in assay [3]; 0.5 µg/mL in assay [4]; 0.125 µg/mL in assay [5]; 1 µg/mL in assay [6]. The MIC in assay [7] was 0.25 µg/mL.

With `CC(C)(O/N=C(\C(=O)N[C@@H]1C(=O)N2C(c3nn[n-]n3)=C(C[N+]3(Cc4nnc(-c5ccc(O)c(O)c5Cl)o4)CCCC3)CS[C@H]12)c1csc(N)n1)C(=O)[O-].[Na+]` [Compound I-45], the MIC was 0.25 µg/mL in assay [1]; 0.5 µg/mL in assay [2]; not above 0.031 µg/mL in assay [3]; 0.25 µg/mL in assay [4]; 0.125 µg/mL in assay [5]; 0.5 µg/mL in assay [6]. For the same compound, the MIC in assay [7] worked out at 0.125 µg/mL.

Turning to `CC(C)(O/N=C(\C(=O)N[C@@H]1C(=O)N2C(c3nnn[n-]3)=C(C[N+]3(CCNC(=O)c4ccc(O)c(O)c4F)CCCC3)CS[C@H]12)c1csc(N)n1)C(=O)[O-].[Na+]` [Compound I-54], the MIC is 1 µg/mL in assay [1]; 0.25 µg/mL in assay [2]; not above 0.031 µg/mL in assay [3]; 0.5 µg/mL in assay [4]; 0.25 µg/mL in assay [5]; 0.25 µg/mL in assay [6]. Besides, the MIC in assay [7] was not above 0.031 µg/mL.

As for `Cc1c(O)c(O)cc2cc[n+](CC3=C(c4nnn[n-]4)N4C(=O)[C@@H](NC(=O)/C(=N\OC(C)(C)C(=O)[O-])c5csc(N)n5)[C@H]4SC3)cc12.[Na+]` [Compound I-22], the MIC in assay [1] is 0.125 µg/mL; in assay [2], 0.25 µg/mL; in assay [3], not above 0.031 µg/mL; in assay [4] it was 0.125 µg/mL; in assay [5], 0.063 µg/mL; in assay [6], 0.25 µg/mL. Moreover, in assay [7], the MIC is not above 0.031 µg/mL.

For `CC(C)(O/N=C(\C(=O)N[C@@H]1C(=O)N2C(c3nnn[n-]3)=C(C[n+]3ccc(-c4ccc(O)c(O)c4Cl)cc3)CS[C@H]12)c1csc(N)n1)C(=O)[O-].[Na+]` [Compound I-79], the MIC in assay [1] was 0.125 µg/mL; in assay [2], 0.063 µg/mL; in assay [3], not above 0.031 µg/mL; in assay [4], 1 µg/mL; in assay [5], 0.5 µg/mL; in assay [6] it was 0.25 µg/mL. Also, the MIC in assay [7] was not above 0.031 µg/mL.

Consider `CC(C)(O/N=C(\C(=O)N[C@@H]1C(=O)N2C(c3nnn[nH]3)=C(C[N+]3(CCNC(=O)c4cc(Cl)c(O)c(O)c4Cl)CCCC3)CS[C@H]12)c1csc(N)n1)C(=O)[O-]` [Compound I-53], for which the MIC in assay [1] was 1 µg/mL (≈ 1.23 µM); in assay [2], 0.063 µg/mL (≈ 0.0777 µM); in assay [3], not above 0.031 µg/mL; in assay [4], 0.125 µg/mL (≈ 0.154 µM); in assay [5] it was 0.063 µg/mL (≈ 0.0777 µM); in assay [6], 0.5 µg/mL (≈ 0.617 µM). In addition, the MIC in assay [7] was found to be 0.25 µg/mL (≈ 0.308 µM).

Consider `CC(C)(O/N=C(\C(=O)N[C@@H]1C(=O)N2C(c3nnn[n-]3)=C(C[N+]3(C)[C@@H]4CC[C@H]3C[C@@H](NC(=O)c3ccc(O)c(O)c3Cl)C4)CS[C@H]12)c1csc(N)n1)C(=O)[O-].[Na+]` (stereo partly drawn) [Compound I-2], for which the MIC in assay [1] was 1 µg/mL; in assay [2] it was 0.25 µg/mL; in assay [3], not above 0.031 µg/mL; in assay [4], 1 µg/mL; in assay [5], 0.5 µg/mL; in assay [6] it was 1 µg/mL. Moreover, the MIC in assay [7] came to 0.25 µg/mL.

On to `CC(C)(O/N=C(\C(=O)N[C@@H]1C(=O)N2C(c3nnn[n-]3)=C(C[N+]34CCCC3(CNC(=O)c3ccc(O)c(O)c3Cl)CCC4)CS[C@H]12)c1cnc(N)s1)C(=O)[O-].[Na+]` (stereo partly drawn) [Compound I-80], for which the MIC in assay [1] was 2 µg/mL; in assay [2] it was 0.125 µg/mL; in assay [3], not above 0.031 µg/mL; in assay [4] it was 1 µg/mL; in assay [5], 0.5 µg/mL; in assay [6], 0.25 µg/mL. The MIC in assay [7] was not above 0.031 µg/mL.

Regarding `CC(C)(O/N=C(\C(=O)N[C@@H]1C(=O)N2C(c3nnn[nH]3)=C(C[n+]3cccc4c(NC(=O)c5ccc(O)c(O)c5Cl)cccc43)CS[C@H]12)c1csc(N)n1)C(=O)[O-]` [Compound I-76], the MIC is 0.5 µg/mL (≈ 0.62 µM) in assay [1]; 0.125 µg/mL (≈ 0.155 µM) in assay [2]; not above 0.031 µg/mL in assay [3]; 0.5 µg/mL (≈ 0.62 µM) in assay [4]; 0.25 µg/mL (≈ 0.31 µM) in assay [5]; 0.5 µg/mL (≈ 0.62 µM) in assay [6]. Moreover, the MIC in assay [7] came to 0.125 µg/mL (≈ 0.155 µM).

Consider `CC(C)(O/N=C(\C(=O)N[C@@H]1C(=O)N2C(c3nnn[n-]3)=C(C[N+]3(CCNC(=O)c4cc(O)c(O)c(Cl)c4)CCCC3)CS[C@H]12)c1csc(N)n1)C(=O)[O-].[Na+]` [Compound I-52], for which the MIC in assay [1] is 1 µg/mL; in assay [2], 2 µg/mL; in assay [3], not above 0.031 µg/mL; in assay [4], 0.5 µg/mL; in assay [5], 0.125 µg/mL; in assay [6], 1 µg/mL. In addition, the MIC in assay [7] is 0.25 µg/mL.
